Laboratory results published in PubChem BioAssay (NCI).
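All cell lines were grown in 96-well plates and treated with compound for 48 hours. GI50: concentration for 50% inhibition of growth. Definition used: TGI = concentration required for complete inhibition of growth.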

Key:
Assay in all cases: NCI tumour cell line growth inhibition, 48 h
KM12 colon = test system: KM12 colon
NCI/ADR-RES ovarian = test system: NCI/ADR-RES ovarian
SR leukemia = test system: SR leukemia
LOX IMVI melanoma = test system: LOX IMVI melanoma
A498 renal = test system: A498 renal
MDA-MB-231 breast = test system: MDA-MB-231 breast
MDA-MB-468 breast = test system: MDA-MB-468 breast
A549 NSCLC = test system: A549 NSCLC
OVCAR-5 ovarian = test system: OVCAR-5 ovarian
UO-31 renal = test system: UO-31 renal
M14 melanoma = test system: M14 melanoma
HCT-116 colon = test system: HCT-116 colon
HL-60(TB) leukemia = test system: HL-60(TB) leukemia
UACC-257 melanoma = test system: UACC-257 melanoma
NCI-H522 lung = test system: NCI-H522 lung
OVCAR-8 ovarian = test system: OVCAR-8 ovarian
SF-268 CNS = test system: SF-268 CNS
SK-MEL-2 melanoma = test system: SK-MEL-2 melanoma
SN12C renal = test system: SN12C renal
HCT-15 colon = test system: HCT-15 colon
SK-MEL-5 melanoma = test system: SK-MEL-5 melanoma
SW-620 colon = test system: SW-620 colon
PC-3 prostate = test system: PC-3 prostate
IGROV1 ovarian = test system: IGROV1 ovarian
RPMI-8226 leukemia = test system: RPMI-8226 leukemia
SK-MEL-28 melanoma = test system: SK-MEL-28 melanoma
OVCAR-3 ovarian = test system: OVCAR-3 ovarian
COLO 205 colon = test system: COLO 205 colon
786-0 renal = test system: 786-0 renal
HT29 colon = test system: HT29 colon

O=C(CSc1nnc(-c2ccc(-c3nc4ccc(Cl)cc4[nH]3)cc2)o1)Nc1ccc(Cl)cc1
GI50 (KM12 colon): 4.05 µM
TGI (KM12 colon): 18.5 µM
GI50 (NCI/ADR-RES ovarian): 4.01 µM
TGI (NCI/ADR-RES ovarian): 18.9 µM
GI50 (SR leukemia): 1.85 µM
TGI (SR leukemia): 6.63 µM
GI50 (LOX IMVI melanoma): 1.4 µM
TGI (LOX IMVI melanoma): 2.8 µM
GI50 (A498 renal): 16.2 µM
TGI (A498 renal): 30.6 µM
GI50 (MDA-MB-231 breast): 1.63 µM
TGI (MDA-MB-231 breast): 3.49 µM
GI50 (MDA-MB-468 breast): 2.37 µM
TGI (MDA-MB-468 breast): 8.01 µM
GI50 (A549 NSCLC): 1.8 µM
TGI (A549 NSCLC): 3.97 µM
GI50 (OVCAR-5 ovarian): 3.11 µM
TGI (OVCAR-5 ovarian): 14.6 µM
GI50 (UO-31 renal): 3.59 µM
TGI (UO-31 renal): 15.8 µM
GI50 (M14 melanoma): 3.05 µM
TGI (M14 melanoma): 11 µM
GI50 (HCT-116 colon): 2.92 µM
TGI (HCT-116 colon): 11.8 µM
GI50 (HL-60(TB) leukemia): 2.82 µM
TGI (HL-60(TB) leukemia): 12.5 µM
GI50 (UACC-257 melanoma): 2.62 µM
TGI (UACC-257 melanoma): 10 µM
GI50 (NCI-H522 lung): 1.85 µM
TGI (NCI-H522 lung): 5.47 µM
GI50 (OVCAR-8 ovarian): 2.04 µM
TGI (OVCAR-8 ovarian): 5.16 µM
GI50 (SF-268 CNS): 3.04 µM
TGI (SF-268 CNS): 11.7 µM
GI50 (SK-MEL-2 melanoma): 3.02 µM
TGI (SK-MEL-2 melanoma): 13.1 µM
GI50 (SN12C renal): 1.72 µM
TGI (SN12C renal): 4.03 µM
GI50 (HCT-15 colon): 2.41 µM
TGI (HCT-15 colon): 11.6 µM
GI50 (SK-MEL-5 melanoma): 2.92 µM
TGI (SK-MEL-5 melanoma): 11.2 µM
GI50 (SW-620 colon): 2.94 µM
TGI (SW-620 colon): 14.1 µM
GI50 (PC-3 prostate): 1.9 µM
TGI (PC-3 prostate): 5.37 µM
GI50 (IGROV1 ovarian): 4.66 µM
TGI (IGROV1 ovarian): 18.4 µM
GI50 (RPMI-8226 leukemia): 3.99 µM
TGI (RPMI-8226 leukemia): 17.4 µM
GI50 (SK-MEL-28 melanoma): 1.53 µM
TGI (SK-MEL-28 melanoma): 3.33 µM
GI50 (OVCAR-3 ovarian): 3.18 µM
TGI (OVCAR-3 ovarian): 10.6 µM
GI50 (COLO 205 colon): 11.8 µM
TGI (COLO 205 colon): 36 µM
GI50 (786-0 renal): 2.21 µM
TGI (786-0 renal): 5.57 µM
GI50 (HT29 colon): 3.2 µM
